In paper PMC7731314, “Tropinone-Derived Alkaloids as Potent Anticancer Agents: Synthesis, Tyrosinase Inhibition, Mechanism of Action, DFT Calculation, and Molecular Docking Studies” (International Journal of Molecular Sciences, 2020):
Read-outs that look alike come from different tables or passages of the source.

How the values were obtained:
[1] = test system: human normal colon fibroblasts (CCD-18Co)
Description: (§3) The human normal skin fibroblasts, i.e., the HSF cell line, were a laboratory strain obtained with the outgrowth technique from skin explants from young volunteers (with subjects’ written informed consent). […] The CCD18-Co cells were grown in Eagle Medium (Sigma-Aldrich, St. Louis, MO, USA) supplemented with 2 mM L-glutamine (Sigma-Aldrich) and 1mM sodium pyruvate (Sigma-Aldrich, St. Louis, MO, USA), 10% FBS, (without antibiotics). HSF were cultured in a 1:1 mixture of Dulbecco’s modified Eagle Medium and Eagle Medium (Sigma-Aldrich) containing 10% FBS, 100 units/mL of penicillin, and 100 mg/mL of streptomycin. […] All cell lines were cultured in a humidified 5% CO2 atmosphere at a temperature of 37 °C. A stock solution of each tested compound was made in dimethylsulfoxide (DMSO; Sigma-Aldrich) and stored at 4 °C until use. The drug was diluted in an appropriate culture medium immediately before use.
(§4) The influence of the tested compounds on normal cell viability was estimated with the MTT assay. The CCD-18Co and HSF cells were seeded in 96-well microplates at a density of 1 × 10^5 cells/mL in complete growth medium. The next day, the medium was replaced with a fresh one containing 2% FBS (growth restriction) and the cells were exposed to each tested compound (3.156–100 µM) to study the acute toxicity in vitro. After 24-h incubation, the medium was removed and the cells were incubated for 3 h with an MTT solution; next, formazan crystals were solubilized overnight by adding SDS buffer and absorbance was determined at a wavelength of 570 nm using an EL800 Microplate Reader (BioTek Instruments, Winooski, VT, USA). The absorbance of the control wells was taken as 100% and the cell viability was expressed as a percentage of the control. CC50 values, defined as concentrations of the compounds necessary to reduce cell viability by 50%, were calculated from nonlinear regression (log(inhibitor) vs. normalized response-variable slope) using GraphPad Prism 5.0.

[2] = test system: human lung carcinoma (A549) cell line; assay: MTT cell proliferation assay, A549; type: cell-based; details: antiproliferative, 96 h, read-out: IC50 ± SD A549
Description: (§1) The influence of the tested compounds on the proliferation of RPMI 8226 and A549 cells was estimated with the MTT assay as described previously. Briefly, 1 × 10^4 cells/mL (RPMI 8226) or 0.2 × 10^4 (A549) cells per well were seeded into 96-well plates and cultured (in growth medium containing 10% FBS) with different concentrations of each compound ranging from 3.125 to 100 μM. The control cells were treated with the vehicle DMSO (0.1%).

in vitro [3] = details: human
Description: as §3, §4

mushroom tyrosinase = mushroom tyrosinase (Agaricus bisporus, UniProt C7FF04); assay: Kinetic analysis of the inhibition of tyrosinase (Lineweaver-Burk); type: biochemical; details: tyrosinase-catalyzed oxidation of L-DOPA
Description: To understand the mechanism of mushroom tyrosinase inhibition by new compounds 3a–3h, enzyme inhibition kinetic studies were performed. The mechanism of tyrosinase inhibition was determined using Lineweaver–Burk plot, which is a useful graphical method for analysis of the Michaelis–Menten equations used to determine the inhibition constant […].
A series of experiments were performed to determine the inhibition kinetics of compounds by following the already reported method. The inhibitor concentrations for compounds were 50 and 100 µM. Substrate L-DOPA concentration was between 100 and 250 µM in all kinetic studies. Maximal initial velocity was determined from the initial linear portion of absorbance up to ten minutes after addition of enzyme. The inhibition type of the enzyme, Michaelis constant (KM) and maximal velocity (Vmax) were determined by Lineweaver–Burk plots of inverse of velocities (1/V) versus inverse of substrate concentration 1/[L-DOPA] mM^−1.

[4] = test system: human normal skin fibroblasts (HSF)
Description: as §3, §4

[5] = test system: human breast adenocarcinoma (MDA-MB-231) cell line; assay: MTT cell proliferation assay, MDA-MB-231; type: cell-based; details: read-out: IC50 ± SD MDA-MB-231
From the text: (§2) The influence of the tested compounds on the proliferation of melanoma B16F10 and breast MDA-MB-231 cells was estimated with the MTT assay as described previously. The cells counted using an automated cell counter (Countess® II FL, Invitrogen by Thermo Fisher Scientific Inc., Waltham, MA USA) and plated in 96-well plates (Nunc Edge 2F, Thermo Fisher Scientific Inc.) at a density of 0.1 × 10^4 and 0.2 × 10^4 per well, respectively. A total of twenty-four hours later, drugs were applied with final concentration: 5, 0.5, 0.05, and 0.005 μg/mL, and after an additional seventy-two hours MTT staining was performed as follows: twenty microliters of 5 mg/mL MTT solution and was added to each well of 96-well plate incubated for 2 h. Subsequently, the medium was removed and crystals of formazan were solubilized in pure isopropanol. Absorbance readout was conducted immediately using plate reader Multiskan Spectrum at 570 nm (Thermo Electron Corporation, Waltham, MA, USA). The background optical density was measured in the wells filled with culture medium, without the cells. The biological evaluation was performed as three independent experiments. The IC50 values were calculated using ED50plus v 1.0 freeware software and the mean response and standard deviation were calculated using Excel software. All of the chemicals were obtained from Sigma-Aldrich.

in vitro [6] = assay: in vitro
Description: as §3, §4

[7] = test system: human multiple myeloma (RPMI 8226) cell line; assay: MTT cell proliferation assay, RPMI 8226; type: cell-based; details: antiproliferative, 96 h, read-out: IC50 ± SD RPMI 8226
Description: as §1

[8] = test system: mouse skin melanoma (B16-F10) cell line; assay: MTT cell proliferation assay, B16-F10; type: cell-based; details: read-out: IC50 ± SD B16-F10
From the text: as §2

[9] = MDA-MB-231, antiproliferative, MTT, 72 h
[10] = B16-F10, antiproliferative, MTT, 72 h

Sequence of mushroom tyrosinase (C7FF04 1-392): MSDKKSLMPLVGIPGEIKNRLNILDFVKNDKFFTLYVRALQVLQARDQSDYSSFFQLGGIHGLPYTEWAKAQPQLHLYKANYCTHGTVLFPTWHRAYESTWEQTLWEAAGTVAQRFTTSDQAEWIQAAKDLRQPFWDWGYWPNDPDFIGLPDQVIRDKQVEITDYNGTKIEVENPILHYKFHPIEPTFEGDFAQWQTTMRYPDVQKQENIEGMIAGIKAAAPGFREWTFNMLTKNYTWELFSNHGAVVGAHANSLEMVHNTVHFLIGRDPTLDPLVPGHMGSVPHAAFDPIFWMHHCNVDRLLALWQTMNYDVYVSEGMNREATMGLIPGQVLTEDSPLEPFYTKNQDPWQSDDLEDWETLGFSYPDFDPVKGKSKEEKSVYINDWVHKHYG

SMILES | CC50 ± SD CCD-18Co [1] | IC50 [2] | CC50 at 24 h (in vitro [3]) | melting point | Inhibitory Mechanism (mushroom tyrosinase) | CC50 ± SD HSF [4] | IC50 [5, 9] | CC50 at 24 h (in vitro [6]) | IC50 [7] | IC50 [8, 10] | IC50 ([5]; MDA-MB-231, 72 h) | IC50 ([8]; B16-F10, 72 h)
CC(=O)Nc1ccc(-c2csc(NN=C3CC4CCC(C3)N4C)n2)cc1 [Compound 3h, N-(4-[2-[2-(8-Methyl-8-azabicyclo[3.2.1]oct-3-ylidene)hydrazinyl]-1,3-thiazol-4-yl]phenyl)acetamide] | no toxicity | 189 ± 33 µM | > 100 µM | 97 to 99 °C | mixed | no toxicity | 2.9 ± 0.25 µM | > 100 µM | 108 ± 4.8 µM | 3.03 ± 0.18 µM | – | –
O=C(O)CCCc1ccc(N(CCCl)CCCl)cc1 [Chlorambucil, reference compound] | – | – | – | – | – | – | – | – | – | – | 4.71 ± 0.5 µM | 2.92 ± 0.1 µM
COc1ccc(-c2csc(NN=C3CC4CCC(C3)N4C)n2)cc1 [Compound 3b, 4-(4-Methoxyphenyl)-2-(2-(8-methyl-8-azabicyclo[3.2.1]octan-3-ylidene)hydrazinyl)thiazole] | – | 133 ± 25.1 µM | – | 91 to 93 °C | mixed | – | 2.53 ± 0.07 µM | – | 42.2 ± 4.55 µM | 2.2 ± 0.04 µM | – | –
CN1C2CCC1CC(=NNc1nc(-c3ccc(NS(C)(=O)=O)cc3)cs1)C2 [Compound 3f, N-(4-[2-[2-(8-Methyl-8-azabicyclo[3.2.1]oct-3-ylidene)hydrazinyl]-1,3-thiazol-4-yl]phenyl)methane-sulfonamide] | no toxicity | 117 ± 22.8 µM | > 100 µM | 98 to 100 °C | mixed | weak | 2.48 ± 0.08 µM | 98.7 ± 4.16 µM | 107 ± 7.22 µM | 2.14 ± 0.23 µM | – | –
CN1C2CCC1CC(=NNc1nc(-c3ccc(N)cc3)cs1)C2 [Compound 3e, 4-[2-[2-(8-Methyl-8-azabicyclo[3.2.1]oct-3-ylidene)hydrazinyl]-1,3-thiazol-4-yl]aniline] | no toxicity | 263 ± 105 µM | > 100 µM | 85 to 87 °C | mixed | no toxicity | 2.81 ± 0.12 µM | > 100 µM | 67 ± 7.14 µM | 2.68 ± 0.4 µM | – | –
CN1C2CCC1CC(=NNc1nc(-c3ccc([N+](=O)[O-])cc3)cs1)C2 [Compound 3d, 4-(4-Nitrophenyl)-2-(2-(8-methyl-8-azabicyclo[3.2.1]octan-3-ylidene)hydrazinyl)thiazole] | – | 31 ± 4.62 µM | – | 99 to 101 °C | mixed | – | 2.44 ± 0.14 µM | – | 17.9 ± 1.78 µM | 1.91 ± 0.04 µM | – | –
CN1C2CCC1CC(=NNc1nc(-c3ccc(C#N)cc3)cs1)C2 [Compound 3c, 4-[2-[2-(8-Methyl-8-azabicyclo[3.2.1]oct-3-ylidene)hydrazinyl]-1,3-thiazol-4-yl]benzonitrile] | – | 74.9 ± 7.65 µM | – | 90 to 92 °C | mixed | – | 2.7 ± 0.14 µM | – | 31.7 ± 2.77 µM | 1.52 ± 0.13 µM | – | –
CN1C2CCC1CC(=NNc1nc(-c3cc4ccccc4oc3=O)cs1)C2 [Compound 3g, 3-[2-[2-(8-Methyl-8-azabicyclo[3.2.1]oct-3-ylidene)hydrazinyl]-1,3-thiazol-4-yl]-2H-chromen-2-one] | – | 29.3 ± 3.98 µM | 42.6 ± 5.89 µM | 110 to 113 °C | mixed | – | 2.83 ± 0.06 µM | 35.3 ± 5.52 µM | 23.2 ± 4.52 µM | 3 ± 0.26 µM | – | –
